Test results reported in patent US20240165282A1, “CONFORMATIONAL CONSTRAINED SOMATOSTATIN RECEPTOR 3 PEPTIDE LIGANDS AND THEIR CONJUGATES AND USES THEREOF” (STARGET PHARMA LTD., priority 2021, published 2024).
*1 amine or outer side, *2 acyl side, *3 side chain or, on linkers, in order; H or OH if unused. Where a SMILES comes first, the peptide text is derived from it. Bridges are numbered along the chain shown (N, C = ends). [ ]: non-standard residue; d: D form. The star is where a group is joined. DOTA = O=C(O)CN1CCN(CC(=O)O)CCN(CC(=O)*)CCN(CC(=O)O)CC1; N(2-mercaptoethyl)Gly = O=C(CN(CCS[*:3])[*:1])[*:2]

What was measured:
[1] = molecular target: T1, GR (h) (Homo sapiens, UniProt P04150); test: Cerep off-target radioligand binding; settings: 1 micromolar; agonist radioligand; read-out: % Activity: Inhibition of Control Specific Binding
T1 construct: Eurofins Cerep (contract assay)
Description: (§1) In this example, off-target interactions for SEQ ID NO.
(§2) The assays were performed by Eurofins Cerep (Celle 1'Evescault, France). Compound binding was calculated as a % inhibition of the binding of a radioactively labeled ligand specific for each target. Compound enzyme inhibition effect was calculated as a % inhibition of control enzyme activity. In each experiment and if applicable, the respective reference compound was tested concurrently with SEQ ID NO. 3, and the data were compared with historical values determined at Eurofins. The experiment was accepted in accordance with Eurofins validation Standard Operating Procedure. Results showing an inhibition (or stimulation for assays run in basal conditions) higher than 50% are considered to represent significant effects of the test compounds.

[2] = molecular target: D2S (h) (Homo sapiens, UniProt P14416); test: Cerep off-target radioligand binding; settings: 1 micromolar; agonist radioligand; read-out: % Activity: Inhibition of Control Specific Binding
Description: as §1, §2

[3] = molecular target: H1 (h) (Homo sapiens, UniProt P35367); test: Cerep off-target radioligand binding; settings: 1 micromolar; antagonist radioligand; read-out: % Activity: Inhibition of Control Specific Binding
Description: as §1, §2

[4] = molecular target: CB2 (h) (Homo sapiens, UniProt P34972); test: Cerep off-target radioligand binding; settings: 1 micromolar; agonist radioligand; read-out: % Activity: Inhibition of Control Specific Binding
Description: as §1, §2

[5] = molecular target: T2, V1a (h) (Homo sapiens, UniProt P37288); test: Cerep off-target radioligand binding; settings: 1 micromolar; agonist radioligand; read-out: % Activity: Inhibition of Control Specific Binding
T2 construct: Eurofins Cerep (contract assay)
Description: as §1, §2

[6] = molecular target: N neuronal alpha 4beta 2 (h) (Homo sapiens, UniProt P17787+P43681); test: Cerep off-target radioligand binding; settings: 1 micromolar; agonist radioligand; read-out: % Activity: Inhibition of Control Specific Binding
Description: as §1, §2

[7] = molecular target: alpha 1A (h) (Homo sapiens, UniProt P35348); test: Cerep off-target radioligand binding; settings: 1 micromolar; antagonist radioligand; read-out: % Activity: Inhibition of Control Specific Binding
Description: as §1, §2

[8] = molecular target: A2A (h) (Homo sapiens, UniProt P29274); test: Cerep off-target radioligand binding; settings: 1 micromolar; agonist radioligand; read-out: % Activity: Inhibition of Control Specific Binding
Description: as §1, §2

[9] = molecular target: D1 (h) (Homo sapiens, UniProt P21728); test: Cerep off-target radioligand binding; settings: 1 micromolar; antagonist radioligand; read-out: % Activity: Inhibition of Control Specific Binding
Description: as §1, §2

[10] = molecular target: M3 (h) (Homo sapiens, UniProt P20309); test: Cerep off-target radioligand binding; settings: 1 micromolar; antagonist radioligand; read-out: % Activity: Inhibition of Control Specific Binding
Description: as §1, §2

[11] = molecular target: T3, dopamine transporter (h) (Homo sapiens, UniProt Q01959); test: Cerep off-target radioligand binding; settings: 1 micromolar; antagonist radioligand; read-out: % Activity: Inhibition of Control Specific Binding
T3 construct: Eurofins Cerep (contract assay)
Description: as §1, §2

[12] = molecular target: ETA (h) (Homo sapiens, UniProt P25101); test: Cerep off-target radioligand binding; settings: 1 micromolar; agonist radioligand; read-out: % Activity: Inhibition of Control Specific Binding
Description: as §1, §2

[13] = molecular target: T4, 5-HT transporter (h) (Homo sapiens, UniProt P31645); test: Cerep off-target radioligand binding; settings: 1 micromolar; antagonist radioligand; read-out: % Activity: Inhibition of Control Specific Binding
T4 construct: Eurofins Cerep (contract assay)
Description: as §1, §2

[14] = molecular target: T5, Potassium Channel hERG (human) (Homo sapiens, UniProt Q12809); test: Cerep off-target radioligand binding; settings: [3H] Dofetilide, read-out: % Activity: Inhibition of Control Specific Binding
T5 construct: Eurofins Cerep (contract assay)
Description: as §1, §2

[15] = molecular target: T6, 5-HT2B (h) (Homo sapiens, UniProt P41595); test: Cerep off-target radioligand binding; settings: 1 micromolar; agonist radioligand; read-out: % Activity: Inhibition of Control Specific Binding
T6 construct: Eurofins Cerep (contract assay)
Description: as §1, §2

[16] = molecular target: delta (DOP) (h) (Homo sapiens, UniProt P41143); test: Cerep off-target radioligand binding; settings: 1 micromolar; agonist radioligand; read-out: % Activity: Inhibition of Control Specific Binding
Description: as §1, §2

[17] = molecular target: H2 (h) (Homo sapiens, UniProt P25021); test: Cerep off-target radioligand binding; settings: 1 micromolar; antagonist radioligand; read-out: % Activity: Inhibition of Control Specific Binding
Description: as §1, §2

[18] = molecular target: kappa (h) (KOP) (Homo sapiens, UniProt P41145); test: Cerep off-target radioligand binding; settings: 1 micromolar; agonist radioligand; read-out: % Activity: Inhibition of Control Specific Binding
Description: as §1, §2

[19] = molecular target: CCK1 (CCKA) (h) (Homo sapiens, UniProt P32238); test: Cerep off-target radioligand binding; settings: 1 micromolar; agonist radioligand; read-out: % Activity: Inhibition of Control Specific Binding
Description: as §1, §2

[20] = molecular target: T7, hSSTR-4 (Homo sapiens, UniProt P31391); test: Radioligand binding, displacement of 125I-Tyr11-SRIF-14
T7 construct: host or cells: Chem-1 (Rat ChemiSCREEN) cells, membrane preparation
How it was run: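 Assays ran at 25 °C in 25 mM HEPES pH 7.4 with 5 mM MgCl2, 1 mM CaCl2, 0.1% BSA and 1% DMSO. Filter-bound radioactivity gave IC50 by nonlinear least-squares regression.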

[21] = system: NMDA; test: Cerep off-target radioligand binding; set-up: species or system human; settings: 1 micromolar; antagonist radioligand
Description: as §1, §2

[22] = system: KV channel; test: Cerep off-target radioligand binding; set-up: species or system human; settings: 1 micromolar; antagonist radioligand
Description: as §1, §2

[23] = molecular target: T8, MAO-A (Rattus norvegicus, UniProt P21396); test: Cerep off-target radioligand binding; set-up: species or system human; settings: 1 micromolar; antagonist radioligand; read-out: % Activity: Inhibition of Control Specific Binding
T8 construct: Eurofins Cerep (assay service)
Description: as §1, §2

[24] = system: AR(h); test: Cerep off-target radioligand binding; set-up: species or system human; settings: 1 micromolar; agonist radioligand
Description: as §1, §2

[25] = system: Na+ channel (site 2); test: Cerep off-target radioligand binding; set-up: species or system human; settings: 1 micromolar; antagonist radioligand
Description: as §1, §2

[26] = system: BZD (central); test: Cerep off-target radioligand binding; set-up: species or system human; settings: 1 micromolar; agonist radioligand
Description: as §1, §2

[27] = system: Ca2+ channel (L, dihydropyridine site); test: Cerep off-target radioligand binding; set-up: species or system human; settings: 1 micromolar; antagonist radioligand
Description: as §1, §2

T7 sequence (P31391 whole entry): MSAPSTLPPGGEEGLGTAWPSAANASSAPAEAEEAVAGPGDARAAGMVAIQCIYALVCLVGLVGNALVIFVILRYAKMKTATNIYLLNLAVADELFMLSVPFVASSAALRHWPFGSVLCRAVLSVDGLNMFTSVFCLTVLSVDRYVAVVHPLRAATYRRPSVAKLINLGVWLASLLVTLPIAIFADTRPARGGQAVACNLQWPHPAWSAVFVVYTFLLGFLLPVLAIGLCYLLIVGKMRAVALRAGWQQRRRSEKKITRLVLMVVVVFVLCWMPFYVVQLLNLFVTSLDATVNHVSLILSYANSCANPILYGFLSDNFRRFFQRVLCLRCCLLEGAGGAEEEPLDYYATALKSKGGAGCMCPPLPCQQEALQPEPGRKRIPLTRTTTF
H1 (h), sequence (P35367 whole entry): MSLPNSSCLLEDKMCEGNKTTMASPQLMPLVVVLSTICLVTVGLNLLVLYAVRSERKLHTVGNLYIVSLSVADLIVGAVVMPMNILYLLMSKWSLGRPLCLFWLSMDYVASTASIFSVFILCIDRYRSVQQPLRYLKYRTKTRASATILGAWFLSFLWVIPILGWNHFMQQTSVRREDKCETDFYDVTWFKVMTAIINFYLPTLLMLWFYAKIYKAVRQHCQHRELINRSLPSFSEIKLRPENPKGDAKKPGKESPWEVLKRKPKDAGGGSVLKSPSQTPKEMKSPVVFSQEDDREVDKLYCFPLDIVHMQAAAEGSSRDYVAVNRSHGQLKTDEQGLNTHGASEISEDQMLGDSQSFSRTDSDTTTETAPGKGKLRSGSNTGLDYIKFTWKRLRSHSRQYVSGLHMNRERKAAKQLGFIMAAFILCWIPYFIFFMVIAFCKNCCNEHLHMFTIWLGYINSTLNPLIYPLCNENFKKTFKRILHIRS
M3 (h), sequence (P20309 whole entry): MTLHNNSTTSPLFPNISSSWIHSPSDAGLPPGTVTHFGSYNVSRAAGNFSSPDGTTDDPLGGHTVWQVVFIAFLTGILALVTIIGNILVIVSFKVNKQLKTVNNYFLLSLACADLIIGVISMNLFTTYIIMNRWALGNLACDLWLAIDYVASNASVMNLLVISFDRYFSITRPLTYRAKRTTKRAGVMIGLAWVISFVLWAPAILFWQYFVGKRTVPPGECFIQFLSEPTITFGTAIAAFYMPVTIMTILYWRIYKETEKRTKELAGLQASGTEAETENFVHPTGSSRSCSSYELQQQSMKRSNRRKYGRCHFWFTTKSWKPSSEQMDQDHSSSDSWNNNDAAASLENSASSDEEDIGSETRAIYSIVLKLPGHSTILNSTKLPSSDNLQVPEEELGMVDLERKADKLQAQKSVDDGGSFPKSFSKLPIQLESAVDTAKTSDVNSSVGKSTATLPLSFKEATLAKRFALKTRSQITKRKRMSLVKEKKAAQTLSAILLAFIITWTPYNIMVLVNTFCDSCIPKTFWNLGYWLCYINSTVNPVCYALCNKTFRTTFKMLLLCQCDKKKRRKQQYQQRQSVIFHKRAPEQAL
D2S (h), sequence (P14416 1-414 isoform P14416-2): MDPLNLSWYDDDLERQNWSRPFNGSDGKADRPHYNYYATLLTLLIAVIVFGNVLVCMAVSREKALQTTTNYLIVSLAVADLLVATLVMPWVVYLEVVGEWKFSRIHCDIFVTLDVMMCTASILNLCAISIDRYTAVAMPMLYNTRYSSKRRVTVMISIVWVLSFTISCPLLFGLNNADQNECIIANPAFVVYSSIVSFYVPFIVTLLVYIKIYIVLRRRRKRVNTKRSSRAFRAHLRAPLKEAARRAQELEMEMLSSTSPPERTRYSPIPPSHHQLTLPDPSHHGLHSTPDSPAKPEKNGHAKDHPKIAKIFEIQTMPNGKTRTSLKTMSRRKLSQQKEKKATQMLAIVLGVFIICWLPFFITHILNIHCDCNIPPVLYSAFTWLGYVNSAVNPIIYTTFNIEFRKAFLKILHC
alpha 1A (h), sequence (P35348 whole entry): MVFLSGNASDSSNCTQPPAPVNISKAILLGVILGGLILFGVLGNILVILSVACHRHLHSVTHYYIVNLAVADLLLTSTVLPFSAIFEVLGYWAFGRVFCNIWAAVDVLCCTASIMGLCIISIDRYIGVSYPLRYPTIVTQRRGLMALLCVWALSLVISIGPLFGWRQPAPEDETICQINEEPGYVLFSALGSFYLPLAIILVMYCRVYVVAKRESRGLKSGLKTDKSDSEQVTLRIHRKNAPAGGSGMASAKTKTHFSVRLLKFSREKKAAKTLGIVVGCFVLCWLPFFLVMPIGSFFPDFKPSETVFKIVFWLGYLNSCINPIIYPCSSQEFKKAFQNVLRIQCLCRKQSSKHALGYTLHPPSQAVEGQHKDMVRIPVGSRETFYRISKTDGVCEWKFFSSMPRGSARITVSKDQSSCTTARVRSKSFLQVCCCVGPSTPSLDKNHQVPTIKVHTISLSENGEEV
T2 sequence (P37288 whole entry): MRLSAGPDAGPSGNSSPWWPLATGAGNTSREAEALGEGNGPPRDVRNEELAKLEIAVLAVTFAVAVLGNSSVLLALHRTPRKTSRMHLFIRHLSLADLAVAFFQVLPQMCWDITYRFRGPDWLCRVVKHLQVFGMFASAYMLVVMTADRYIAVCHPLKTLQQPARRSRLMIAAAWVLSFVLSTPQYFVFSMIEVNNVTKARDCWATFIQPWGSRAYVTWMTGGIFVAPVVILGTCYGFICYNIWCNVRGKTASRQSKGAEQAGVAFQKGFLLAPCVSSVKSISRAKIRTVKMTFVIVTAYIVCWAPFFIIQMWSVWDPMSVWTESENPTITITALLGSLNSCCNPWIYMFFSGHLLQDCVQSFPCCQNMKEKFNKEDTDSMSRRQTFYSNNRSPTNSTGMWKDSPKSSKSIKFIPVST
H2 (h), sequence (P25021 whole entry): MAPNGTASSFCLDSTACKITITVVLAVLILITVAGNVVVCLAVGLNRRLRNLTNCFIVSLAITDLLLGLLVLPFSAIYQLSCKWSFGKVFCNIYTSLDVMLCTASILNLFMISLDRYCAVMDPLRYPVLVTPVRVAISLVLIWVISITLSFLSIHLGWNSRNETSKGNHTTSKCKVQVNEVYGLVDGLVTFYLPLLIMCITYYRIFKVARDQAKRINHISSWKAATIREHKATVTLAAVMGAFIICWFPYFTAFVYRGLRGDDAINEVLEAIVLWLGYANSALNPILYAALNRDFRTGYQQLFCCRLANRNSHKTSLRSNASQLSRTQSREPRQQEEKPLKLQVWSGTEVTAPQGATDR
N neuronal alpha 4beta 2 (h), sequence (P43681 29-627 limits assumed): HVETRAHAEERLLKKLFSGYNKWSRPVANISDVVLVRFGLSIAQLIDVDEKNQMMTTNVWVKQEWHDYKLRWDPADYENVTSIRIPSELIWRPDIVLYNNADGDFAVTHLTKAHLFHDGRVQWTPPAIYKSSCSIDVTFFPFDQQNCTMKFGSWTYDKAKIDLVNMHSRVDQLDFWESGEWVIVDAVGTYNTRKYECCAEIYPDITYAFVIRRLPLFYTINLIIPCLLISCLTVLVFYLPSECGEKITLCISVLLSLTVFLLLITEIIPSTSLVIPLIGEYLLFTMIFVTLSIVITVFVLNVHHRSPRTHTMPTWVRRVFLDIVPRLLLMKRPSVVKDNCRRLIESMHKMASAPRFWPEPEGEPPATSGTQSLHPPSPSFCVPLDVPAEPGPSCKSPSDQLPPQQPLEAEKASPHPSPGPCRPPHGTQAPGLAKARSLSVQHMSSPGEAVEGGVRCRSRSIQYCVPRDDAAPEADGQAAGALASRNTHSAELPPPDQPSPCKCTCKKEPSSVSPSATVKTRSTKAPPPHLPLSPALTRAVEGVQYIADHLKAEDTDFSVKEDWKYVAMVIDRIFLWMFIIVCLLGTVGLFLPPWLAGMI
N neuronal alpha 4beta 2 (h), sequence (P17787 26-502): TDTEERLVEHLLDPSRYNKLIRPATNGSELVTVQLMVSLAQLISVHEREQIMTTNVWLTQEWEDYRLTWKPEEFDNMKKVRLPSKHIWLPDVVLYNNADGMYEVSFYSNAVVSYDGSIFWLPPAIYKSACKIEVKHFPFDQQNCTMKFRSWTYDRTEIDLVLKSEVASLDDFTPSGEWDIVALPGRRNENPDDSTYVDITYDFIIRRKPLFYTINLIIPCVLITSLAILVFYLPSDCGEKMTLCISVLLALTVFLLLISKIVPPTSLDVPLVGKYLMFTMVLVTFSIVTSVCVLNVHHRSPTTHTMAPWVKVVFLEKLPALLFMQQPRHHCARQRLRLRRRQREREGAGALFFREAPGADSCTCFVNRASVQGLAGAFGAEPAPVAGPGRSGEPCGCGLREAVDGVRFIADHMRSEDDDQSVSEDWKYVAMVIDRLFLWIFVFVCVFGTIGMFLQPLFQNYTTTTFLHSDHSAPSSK
A2A (h), sequence (P29274 whole entry): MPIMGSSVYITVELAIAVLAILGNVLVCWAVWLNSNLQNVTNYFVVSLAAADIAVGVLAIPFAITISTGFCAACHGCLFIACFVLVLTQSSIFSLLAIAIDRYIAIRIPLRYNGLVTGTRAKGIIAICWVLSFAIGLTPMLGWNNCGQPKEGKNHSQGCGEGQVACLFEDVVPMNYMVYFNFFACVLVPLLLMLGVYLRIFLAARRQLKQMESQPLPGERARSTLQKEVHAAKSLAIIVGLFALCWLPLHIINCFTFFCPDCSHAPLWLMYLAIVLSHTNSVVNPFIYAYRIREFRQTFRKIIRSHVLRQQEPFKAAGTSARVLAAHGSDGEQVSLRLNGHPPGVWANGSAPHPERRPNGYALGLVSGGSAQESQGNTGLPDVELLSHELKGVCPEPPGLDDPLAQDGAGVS
CB2 (h), sequence (P34972 whole entry): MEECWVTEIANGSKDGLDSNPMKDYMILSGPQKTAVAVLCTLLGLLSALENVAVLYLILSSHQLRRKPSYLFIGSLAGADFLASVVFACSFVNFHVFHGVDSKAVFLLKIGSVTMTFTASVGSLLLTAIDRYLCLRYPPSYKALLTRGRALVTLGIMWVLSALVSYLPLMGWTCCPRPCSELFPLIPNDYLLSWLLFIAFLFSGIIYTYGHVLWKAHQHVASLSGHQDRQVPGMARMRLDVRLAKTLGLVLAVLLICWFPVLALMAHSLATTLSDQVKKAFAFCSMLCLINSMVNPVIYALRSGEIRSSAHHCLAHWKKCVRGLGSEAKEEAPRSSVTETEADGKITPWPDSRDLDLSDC

## C[C@@H](O)[C@@H]1NC(=O)[C@H](CCCCN)NC(=O)[C@@H](Cc2c[nH]c3ccccc23)NC(=O)[C@H](Cc2ccccc2)NC(=O)[C@@H](NC(=O)[C@H](CCCNC(=N)N)NC(=O)[C@@H](Cc2ccccc2)NC(=O)CN2CCN(CC(=O)O)CCN(CC(=O)O)CCN(CC(=O)O)CC2)CSSCCN(CC(N)=O)C(=O)[C@H](Cc2ccccc2)NC1=O [SEQ ID NO: 3, DOTA-D-Phe^1-Arg^2-Cys^3-Phe^4-D-Trp^5-Lys^6-Thr^7-Phe^8-NTEG^9-NH2 cyclo 3-9] ({DOTA}-[dF]RCF[dW]KTF[N(2-mercaptoethyl)Gly]-NH2; disulfide 3-9)
[1]
  inhibition at 1 µM: -10%
[2]
  inhibition at 1 µM: 3%
[3]
  inhibition at 1 µM: 7%
[4]
  inhibition at 1 µM: -1%
[5]
  inhibition at 1 µM: 0%
[6]
  inhibition at 1 µM: -4%
[7]
  inhibition at 1 µM: -1%
[8]
  inhibition at 1 µM: 0%
[9]
  inhibition at 1 µM: -1%
[10]
  inhibition at 1 µM: -7%
[11]
  inhibition at 1 µM: 12%
[12]
  inhibition at 1 µM: -3%
[13]
  inhibition at 1 µM: -9%
[14]
  inhibition at 1 micromolar: -9%
[15]
  inhibition at 1 µM: -31%
[16]
  inhibition at 1 µM: 10%
[17]
  inhibition at 1 µM: -7%
[18]
  inhibition at 1 µM: 10%
[19]
  inhibition at 1 µM: -15%
[20]
  IC50: > 1000 nM
  Ki: > 1000 nM
[20]; hSSTR-4
  Hill coefficient (nH): 1.14
[21]
  % Activity: Inhibition of Control Specific Binding: 10%
[22]
  % Activity: Inhibition of Control Specific Binding: −5%
[23]
  inhibition at 1 µM: 3%
[24]
  % Activity: Inhibition of Control Specific Binding: −9%
[25]
  % Activity: Inhibition of Control Specific Binding: 3%
[26]
  % Activity: Inhibition of Control Specific Binding: −7%
[27]
  % Activity: Inhibition of Control Specific Binding: −10%
